Assay results as given in article PMC4519180, “Fluorescence Polarization Screening Assays for Small Molecule Allosteric Modulators of ABL Kinase Function” (PLoS ONE, 2015).

Assays:
[1] = test system: wild type ABL core expressed in 293T cells; experiment: ABL core autophosphorylation in transfected 293T cells (immunoblot); format: cell-based, human; settings: for Effect on ABL phosphorylation (pY412, pY245, pY89), compound alone: compound 142 1–10 μM or DPH 10 μM
Description: ABL core proteins were expressed in human 293T cells and analyzed for kinase activity as described elsewhere. Briefly, cells were grown overnight in 60 mm plates, transfected with an expression vector for the wild type ABL core, and treated with compounds 2 h post- transfection. Cells were lysed by sonication 24 h later, and cell lysates clarified by centrifugation. ABL was immunoprecipitated via the C-terminal His-tag, resolved by SDS-PAGE, and transferred to nitrocellulose membranes for immunoblot analysis with antibodies to the ABL protein and the three autophosphorylation sites: pTyr412 (activation loop), pTyr245 (SH2-kinase linker), and pTyr89 (SH3 domain).

[2] = target: T1, wild type ABL kinase core (Homo sapiens, UniProt P00519, DEL15-56); experiment: ADP Quest kinetic kinase assay, wild type ABL core; format: biochemical; settings: 30 min pre-incubation; ATP and substrate at Km; mean ± SE, triplicate; read-out: EC50 for activation of ABL core
T1 construct: ABL core proteins (residues 1–531 with an internal deletion of residues 15–56); made in house; host or cells: Sf9 insect cells
T1 sequence (P00519 with tags, fused parts or gaps isoform P00519-2 DEL15-56): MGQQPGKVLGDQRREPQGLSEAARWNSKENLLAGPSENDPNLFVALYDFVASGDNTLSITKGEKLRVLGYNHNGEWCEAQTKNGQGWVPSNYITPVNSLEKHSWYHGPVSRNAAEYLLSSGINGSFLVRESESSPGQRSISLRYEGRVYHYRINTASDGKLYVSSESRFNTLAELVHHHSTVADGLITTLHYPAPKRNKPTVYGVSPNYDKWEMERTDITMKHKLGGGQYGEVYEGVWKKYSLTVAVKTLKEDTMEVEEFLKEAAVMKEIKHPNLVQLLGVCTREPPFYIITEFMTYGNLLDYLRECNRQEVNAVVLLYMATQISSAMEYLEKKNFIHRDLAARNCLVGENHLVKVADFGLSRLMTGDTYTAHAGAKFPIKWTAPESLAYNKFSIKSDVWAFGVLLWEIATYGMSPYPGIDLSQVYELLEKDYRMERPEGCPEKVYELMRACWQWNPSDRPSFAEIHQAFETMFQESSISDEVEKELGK

[3] = target: T1, wild type ABL kinase core; experiment: ADP Quest kinetic kinase assay, wild type ABL core; format: biochemical; settings: for Activation constant Kact: concentration giving half-maximum velocity; for Activation constant Kact / Vmax: mean ± SE; for Vmax: maximal reaction velocity with activator; for Vmax/Kact: overall enhancement of catalytic efficiency
Description: (§1) The ADP Quest assay (DiscoverRx), which fluorimetrically measures kinase activity as the production of ADP, was used to determine ABL kinase reaction velocities. Assays were performed in quadruplicate in black 384 well plates (Corning #3571) in reaction volumes of 10 μL/well. Recombinant kinase protein concentrations were fixed at 40 ng/well for the wild type ABL core, 9 ng/well for the high affinity linker ABL core, and 250 ng/well for the SRC family kinase HCK. The Tyr2 substrate peptide for ABL (EAIYAAPFAKKK) as well as the SFK substrate peptide (YIYGSFK) were dissolved in the ADP Quest assay buffer (15 mM HEPES, pH 7.4, 20 mM NaCl, 1 mM EGTA, 0.02% Tween-20, 10 mM MgCl2, 0.1 mg/ml bovine γ-globulins), while ATP stocks were prepared in 10 mM Tris-HCl (pH 7.0). Each kinase reaction was initiated by the addition of ATP and read at 5 min intervals for 3 h in a SpectraMax M5 Microplate reader (Molecular Devices). To determine the substrate Km for ABL kinases, the ATP concentration was fixed at 50 μM and the substrate peptide was serially diluted from 0.2–200 μM. For ABL kinase ATP Km determination, the substrate concentration was fixed at the respective substrate Km for each of the kinases, and the ATP concentration was titrated over the range of 0.2–200 μM. The resulting progress curves were analyzed according to the method of Moroco et al.. Briefly, raw fluorescence data were corrected for non-enzymatic ADP production (no kinase or substrate control) and kinase auto-phosphorylation (rate observed in the absence of substrate), and converted to pmol ADP produced using an ADP standard curve generated under the same reaction conditions. The resulting values were normalized to the amount of kinase present in each reaction, and plotted against time. The linear portion of each progress curve was fit by regression analysis to determine the reaction velocity. Substrate and ATP Km values were determined by non-linear regression analysis using the Michaelis-Menten equation (GraphPad Prism 6).
Half-maximal effective concentrations (EC50) and activation constants (Kact) were determined for the ABL kinase core by both dipyridamole and the known ABL activator, DPH (5-(1,3-diaryl-1H-pyrazol-4-yl)hydantoin; Sigma-Aldrich). The kinase was pre-incubated with each compound (10 nM to 100 μM) for 30 min at room temperature, followed by kinase assay with the substrate and ATP concentrations fixed at their respective Km values. The rate of each reaction was plotted against compound concentration, and analyzed by non-linear regression analysis (GraphPad Prism 6) to determine the EC50 value. To determine the activation constant Kact, the basal rate of kinase activity was subtracted from the rates of reaction in the presence of each compound concentration, and plotted as a function of compound concentration. The resulting curves obeyed saturation kinetics and were best-fit by the following equation [19]: Va= Vact[L]/(Kact+[L]) where Va is the reaction velocity in the presence of each activator concentration, Vact is the maximal reaction velocity, L is the activator concentration, and Kact is the activator concentration that yields half-maximal reaction velocity.

[4] = test system: ABL core with high-affinity linker (HAL); experiment: ADP Quest kinetic kinase assay, high-affinity linker ABL core; format: biochemical, human; settings: 10 μM; ATP and substrate at Km
Description: as §1, with “Recombinant kinase protein concentrations were fixed at 40 ng/well for the wild type ABL core, 9 ng/well for the high affinity linker ABL core, and 250 ng/well for the SRC family kinase HCK.” left out, “Tyr2” left out, “([…])” for “(YIYGSFK)”, “To determine the substrate Km for ABL kinases, the ATP concentration was fixed at 50 μM and the substrate peptide was serially diluted from 0.2–200 μM. For ABL kinase ATP Km determination, the substrate concentration was fixed at the respective substrate Km for each of the kinases, and the ATP concentration was titrated over the range of 0.2–200 μM.” left out, “The linear portion of each progress curve was fit by regression analysis to determine the reaction velocity.” left out

ABL SH3 domain = target: T2, ABL SH3 domain (Homo sapiens, UniProt P00519); experiment: FP assay with isolated ABL SH3 domain and p41 probe; format: binding; settings: significant inhibition at 3 and 10 μM
T2 construct: we performed FP assays with the N32L protein as well as the isolated ABL SH3 domain; made in house
T2 sequence (P00519 61-121 limits assumed): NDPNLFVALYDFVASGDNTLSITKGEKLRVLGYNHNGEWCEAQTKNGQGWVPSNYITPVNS
Description: (§2) Fluorescence Polarization (FP) experiments were performed in quadruplicate in low volume black 384 well plates with a non-binding surface (Corning; catalog # 3676). Peptides and proteins were added to each well in FP assay buffer (20 mM Tris-HCl, pH 8.3) for a final assay volume of 20 μL and mixed by shaking for 5 min at room temperature. The FP signal in millipolarization (mP) units was measured at an excitation wavelength of 485 nm and emission wavelength of 515 nm in a SpectraMax M5 microplate reader (Molecular Devices) using the Softmax Pro software (version 5.4.1). Each plate was read three times and the values were averaged prior to analysis. Raw fluorescence intensity was also read at the same wavelengths for each assay.

SRC-family kinase HCK = target: T3, SRC-family kinase HCK (Homo sapiens, UniProt P08631, Q523E/Q524E/Q525I); experiment: ADP Quest kinetic kinase assay, HCK; format: biochemical; settings: 1 μM; recombinant near-full-length downregulated HCK
T3 construct: made in house; host or cells: Sf9 insect cells
T3 sequence (P08631 78-526 Q523E/Q524E/Q525I limits assumed): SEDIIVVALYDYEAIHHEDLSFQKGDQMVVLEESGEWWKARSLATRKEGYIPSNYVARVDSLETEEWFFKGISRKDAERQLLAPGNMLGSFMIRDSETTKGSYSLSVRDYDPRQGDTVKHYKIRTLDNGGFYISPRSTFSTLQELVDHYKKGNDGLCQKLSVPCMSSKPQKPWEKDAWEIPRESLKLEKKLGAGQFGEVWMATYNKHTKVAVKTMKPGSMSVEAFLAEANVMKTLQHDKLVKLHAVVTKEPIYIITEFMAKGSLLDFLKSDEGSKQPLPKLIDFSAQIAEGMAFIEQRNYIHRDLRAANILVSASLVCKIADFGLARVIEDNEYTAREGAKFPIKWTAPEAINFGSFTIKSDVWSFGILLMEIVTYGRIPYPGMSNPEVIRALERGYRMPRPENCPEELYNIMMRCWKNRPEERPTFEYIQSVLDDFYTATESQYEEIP
Description: The ADP Quest assay (DiscoverRx), which fluorimetrically measures kinase activity as the production of ADP, was used to determine ABL kinase reaction velocities. Assays were performed in quadruplicate in black 384 well plates (Corning #3571) in reaction volumes of 10 μL/well. Recombinant kinase protein concentrations were fixed at 40 ng/well for the wild type ABL core, 9 ng/well for the high affinity linker ABL core, and 250 ng/well for the SRC family kinase HCK. […] Each kinase reaction was initiated by the addition of ATP and read at 5 min intervals for 3 h in a SpectraMax M5 Microplate reader (Molecular Devices). […] The resulting progress curves were analyzed according to the method of Moroco et al.. Briefly, raw fluorescence data were corrected for non-enzymatic ADP production (no kinase or substrate control) and kinase auto-phosphorylation (rate observed in the absence of substrate), and converted to pmol ADP produced using an ADP standard curve generated under the same reaction conditions. […] Substrate and ATP Km values were determined by non-linear regression analysis using the Michaelis-Menten equation (GraphPad Prism 6).

ABL N32L protein = target: T4, ABL N32L protein (Homo sapiens, UniProt P00519, DEL15-56); experiment: Surface plasmon resonance, immobilized ABL N32L; format: binding
T4 construct: corresponding to residues 2–255 with an internal deletion of residues 15–56; Gly-His6 (GHHHHHH) (N); made in house; host or cells: E. coli Rosetta2(DE3)pLysS
T4 sequence (P00519 with tags, fused parts or gaps isoform P00519-2 DEL15-56): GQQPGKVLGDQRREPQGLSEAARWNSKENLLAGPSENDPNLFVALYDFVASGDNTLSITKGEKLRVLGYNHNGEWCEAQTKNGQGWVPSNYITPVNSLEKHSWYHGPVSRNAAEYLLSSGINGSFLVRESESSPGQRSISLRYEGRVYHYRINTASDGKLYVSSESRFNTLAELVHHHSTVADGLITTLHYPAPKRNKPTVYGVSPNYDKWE
Description: (§3) SPR analysis was performed on a BIAcore T100 instrument (GE Healthcare) using four-channel CM5 biosensor chips at 25°C. Recombinant purified ABL proteins were covalently attached to the CM5 chip via standard amine coupling chemistry. Compound 142 (dipyridamole; Prestwick Chemical) was prepared in 20 mM Tris-HCl, pH 8.3, 150 mM NaCl and 0.1% DMSO and flowed past the immobilized ABL protein channel and a reference channel on the biosensor at a flow rate of 50 μL/min for 3 min over a range of concentrations. The initial binding reaction was followed by dissociation for 5 min, and the chip surface was regenerated using 20 mM Tris-HCl, pH 8.3, 150 mM NaCl, 0.1% DMSO, 0.05% Tween 20 and 1 mM DTT at a flow rate of 50 μL/min for 10 min. Sensorgrams were recorded in triplicate, corrected for buffer effects, and fitted with the 1:1 Langmuir binding model using the BIAevaluation software suite version 2.0.4 (GE Healthcare).

ABL N32L WT protein = target: T5, ABL N32L WT protein (Homo sapiens, UniProt P00519, DEL15-56); experiment: Differential scanning fluorimetry; format: binding; settings: compound 100 μM, N32L 1 μM, vs DMSO
T5 construct: corresponding to residues 2–255 with an internal deletion of residues 15–56; Gly-His6 (GHHHHHH) (N); made in house; host or cells: E. coli Rosetta2(DE3)pLysS
Description: Hit compounds (100 μM) were pre-incubated with the ABL N32L WT protein (1 μM) for 30 minutes in bicine assay buffer (10 mM bicine, 150 mM NaCl, pH 8.0). SYPRO Orange (Sigma) was added at 5X final concentration and fluorimetry profiles were acquired with a StepOnePlus real-time quantitative PCR instrument (Applied Biosystems) and software (version 2.3). Assays were performed in duplicate in sealed MicroAmp Fast 96-well qPCR plates (Applied Biosystems), and control reactions without proteins were included to correct for background fluorescence. Assays were equilibrated at 25°C for 2 minutes, followed by an increase in temperature at the rate of 1% (1.6°C/min) to 99°C, with continuous data collection. Mean fluorescence intensities, after subtracting background fluorescence, were plotted against temperature. Non-linear regression analysis using the Boltzmann sigmoid function in GraphPad Prism 6 was used to determine the Tm values, the midpoint of the melt curve between the minimum and maximum fluorescence intensities.

isolated ABL SH3 domain = target: T6, isolated ABL SH3 domain (Homo sapiens, UniProt P00519); experiment: Surface plasmon resonance, isolated SH3 domain; format: binding; settings: SPR, data not shown
T6 construct: we performed FP assays with the N32L protein as well as the isolated ABL SH3 domain; made in house
T6 sequence (P00519 61-121 limits assumed): as the sequence (P00519 61-121 limits assumed) above
Description: as §3

[5] = target: T7, ABL N32L protein (Ncap-SH3-SH2-linker) (Homo sapiens, UniProt P00519, DEL15-56); experiment: Fluorescence polarization (FP) assay, ABL N32L protein with p41 probe peptide; format: binding
T7 construct: corresponding to residues 2–255 with an internal deletion of residues 15–56; Gly-His6 (GHHHHHH) (N); made in house; host or cells: E. coli Rosetta2(DE3)pLysS
Description: as §2
A collection of 1200 FDA-approved small molecules (Prestwick Chemical, Inc.) was used in a pilot screen with the FP assay. Each library compound was screened at 10 μM and a final DMSO concentration of 1%. Compounds were added to 384-well assay plates first, followed by a pre-mixed complex of the ABL N32L protein (25 μg) and the p41 probe peptide (50 nM). Each plate also contained twenty-eight wells of the wild type N32L protein plus p41 probe and DMSO as positive controls as well as twenty-eight wells of mutant ABL N32L-W118A protein plus p41 probe peptide and DMSO as negative controls. Each plate was mixed on the shaker for 5 min, read three consecutive times, and the average FP signal for each well was calculated. To identify potential hit compounds, three measures were used: (i) average FP signal; (ii) control normalized percent inhibition, in which the FP signal with each compound was normalized to the mean FP signal of the positive and negative plate controls according to the formula: [(sample FP–mean FPWT) / (mean FPW118A –mean FPWT) x 100] [22, 23]; (iii) Z score, a statistical measure of variation of the mean sample FP signal that is independent of plate controls, calculated according to the formula: [(sample FP–mean FPsamples) / standard deviationsamples] [22, 23]. […]

Compound | Effect on ABL phosphorylation (pY412, pY245, pY89), compound alone [1] | EC50 [2] | Activation constant Kact [3] | Vmax [3] | Vmax/Kact [3] | Effect on kinase activity of ABL core with HAL substitution [4] | FP signal with ABL SH3 protein over compound concentration range (ABL SH3 domain) | Effect on ABL phosphorylation (pY412, pY245, pY89) in the presence of DPH ([1]; compound 142 1–10 μM plus DPH 10 μM) | Effect on HCK reaction velocity (SRC-family kinase HCK) | kon (ABL N32L protein; 1:1 Langmuir binding model, 25°C, read-out: Association rate constant) | koff (ABL N32L protein; 1:1 Langmuir binding model, 25°C, read-out: Dissociation rate constant) | Kd (ABL N32L protein; SPR, ABL N32L protein, read-out: Equilibrium dissociation constant (KD), ratio kd/ka) | Stimulation of wild type ABL kinase activity relative to DMSO control ([3]; 10 μM, ATP and substrate at Km) | Decrease in Tm (ABL N32L WT protein) | Kd (isolated ABL SH3 domain) | Inhibition of FP signal relative to DMSO controls (retest) ([5]; 10 μM, quadruplicate, screening assay conditions, p < 0.05) | FP signal with ABL N32L protein over compound concentration range ([5]; significant inhibition at 3 and 10 μM) | Effect of unlabeled peptide on FP signal (competition) ([5]; p41 probe 50 nM, N32L 20 μg/well, unlabeled peptide 2.5 to 100 μM)
5-(1,3-diaryl-1H-pyrazol-4-yl)hydantoin [DPH] | very small effect | 1.11 ± 0.5 µM | 1.02 ± 0.07 µM | 1.90 ± 0.4 µM | 1.86 | did not activate | – | – | – | – | – | – | – | – | – | – | – | –
OCCN(CCO)c1nc(N2CCCCC2)c2nc(N(CCO)CCO)nc(N3CCCCC3)c2n1 [compound 142, dipyridamole] | did not affect phosphorylation | 0.63 ± 0.07 µM | 0.4 ± 0.02 µM | 3.2 ± 0.28 µM | 8.00 | did not affect | concentration-dependent decrease | remarkable enhancement of phosphorylation | no effect | 3870 ± 590000 M⁻¹ s⁻¹ | 0.027 ± 7.2e-05 s⁻¹ | 6.9 µM | about 40% | more than 2 °C | 30 µM | significant inhibition | concentration-dependent decrease | –
QKEGERALPSIP [non-specific peptide] | – | – | – | – | – | – | – | – | – | – | – | – | – | – | – | – | – | no effect
